# Calls of active or inactive are those of the source. No cut-off for these calls is given here.
# How the values were obtained:
# [1] = target: T1, Nonstructural protein 3 (Zika virus, UniProt A0A024AXB9); assay: (§1) Inhibition of N-terminal hexa-histidine tagged Zika virus NS2B/NS3 protease expressed in Escherichia coli BL21-Gold (DE3) using fluorogenic AMC-substituted peptide boc-GRR-7-amino-4-methylcoumarin measured every 30 secs for 10 mins by fluorometric assay
# [2] = test system: dengue virus type 2; assay: as §1, with “Dengue” for “Zika”, “virus 2” for “virus”, “protease I30A/L31A mutant” for “protease”, “(DE3) at 20 uM” for “(DE3)”, “assay relative to control” for “assay”
# [3] = target: Nonstructural protein 3 (Zika virus) (UniProt A0A024AXB9); assay: Inhibition of N-terminal hexa-histidine tagged Zika virus NS2B/NS3 protease expressed in Escherichia coli BL21-Gold (DE3) at 20 uM using fluorogenic AMC-substituted peptide boc-GRR-7-amino-4-methylcoumarin measured every 30 secs for 10 mins by fluorometric assay relative to control
# [4] = Inhibition of N-terminal hexa-histidine tagged Dengue virus 2 NS2B/NS3 protease I30A/L31A mutant expressed in Escherichia coli BL21-Gold (DE3) using fluorogenic AMC-substituted peptide boc-GRR-7-amino-4-methylcoumarin measured every 30 secs for 10 mins by fluorometric assay; set-up: species or system dengue virus type 2
# [5] = Drug level in rat liver microsomes treated with (R)-N-(5,6-Dimethoxybenzo[d]thiazol-2-yl)-1-tosylpyrrolidine-2-carboxamide assessed as compound formation in presence of NADPH generating system by LC-MS/MS analysis; format: ADME, Microsome
# [6] = test system: Zika virus; assay: Antiviral activity against Zika virus French Polynesia infected in human A549 cells assessed as reduction in viral RNA at 5 uM measured after 24 to 72 hrs post infection by RT-qPCR analysis; format: functional, organism-based
# [7] = Drug level in rat liver microsomes treated with (S)-N-(5,6-Dimethoxybenzo[d]thiazol-2-yl)-1-tosylpyrrolidine-2-carboxamide assessed as compound formation in presence of NADPH generating system by LC-MS/MS analysis; format: ADME, Microsome
# [8] = test system: A549; assay: Cytotoxicity against human A549 cells assessed as reduction in cell viability up to 5 uM by Presto blue cell viability reagent based assay
# [9] = test system: Zika virus; assay: Antiviral activity against Zika virus infected in African green monkey Vero cells assessed as suppression of viral replication at 10 uM pre-incubated with cells for 1 hr before viral infection and measured after 4 days by RT-qPCR analysis; format: functional, organism-based
# [10] = target: T1, Nonstructural protein 3; assay: Binding affinity to N-terminal hexa-histidine tagged Zika virus NS2B/NS3 protease expressed in Escherichia coli BL21-Gold (DE3) by microscale thermophoresis method
# [11] = test system: Zika virus; assay: Antiviral activity against Zika virus Uganda infected in human A549 cells assessed as reduction in viral RNA at 5 uM measured after 24 to 72 hrs post infection by RT-qPCR analysis; format: functional, organism-based
# [12] = test system: Zika virus; assay: Antiviral activity against Zika virus French Polynesia infected in African green monkey Vero cells assessed as reduction in plaque forming units at 5 uM measured after 96 hrs by crystal violet staining based assay; format: functional, organism-based
# [13] = test system: Zika virus; assay: Antiviral activity against Zika virus Uganda infected in African green monkey Vero cells assessed as reduction in plaque forming units at 5 uM measured after 96 hrs by crystal violet staining based assay; format: functional, organism-based
# [14] = test system: Zika virus; assay: Antiviral activity against Zika virus infected in human A549 cells assessed as induction of redistribution of the ZIKV Env protein from ER to cytoplasm at 0.5 uM by confocal scanning microscopy; format: functional, organism-based
# [15] = target: T1, Nonstructural protein 3; assay: as §1, with “Non-competitive inhibition” for “Inhibition”, “using 50 to 200 uM” for “using”, “assay based Dixon plot analysis” for “assay”
# [16] = test system: dengue virus type 2; assay: Antiviral activity against Dengue virus 2 infected in African green monkey Vero cells assessed as suppression of viral replication at 10 uM pre-incubated with cells for 1 hr before viral infection and measured after 4 days by RT-qPCR analysis; format: functional, organism-based
# [17] = test system: dengue virus type 2; assay: Antiviral activity against Dengue virus 2 infected in African green monkey Vero cells assessed as suppression of viral replication at 3 uM pre-incubated with cells for 1 hr before viral infection and measured after 4 days by RT-qPCR analysis; format: functional, organism-based
# [18] = test system: Zika virus; assay: Antiviral activity against Zika virus infected in African green monkey Vero cells assessed as suppression of viral replication at 3 uM pre-incubated with cells for 1 hr before viral infection and measured after 4 days by RT-qPCR analysis; format: functional, organism-based
# [19] = Drug metabolism in rat liver microsomes assessed as formation of (S)-N-(5,6-Dimethoxybenzo[d]thiazol-2-yl)-1-((4-(hydroxymethyl) phenyl) sulfonyl)pyrrolidine-2-carboxamide in presence of NADPH generating system by LC-MS/MS analysis; format: ADME, Microsome
# [20] = Drug metabolism in rat liver microsomes assessed as formation of (R)-N-(5,6-Dimethoxybenzo[d]thiazol-2-yl)-1-((4-(hydroxymethyl) phenyl) sulfonyl)pyrrolidine-2-carboxamide in presence of NADPH generating system by LC-MS/MS analysis; format: ADME, Microsome
# [21] = Drug metabolism in rat liver microsomes assessed as formation of (S)-1-Benzoyl-N-(5,6-dihydroxybenzo[d]thiazol-2-yl)pyrrolidine-2-carboxamide in presence of NADPH generating system by LC-MS/MS analysis; format: ADME, Microsome
# [22] = Drug metabolism in rat liver microsomes assessed as formation of (R)-N-(5,6-Dihydroxybenzo[d]thiazol-2-yl)-1-tosylpyrrolidine-2-carboxamide in presence of NADPH generating system by LC-MS/MS analysis; format: ADME, Microsome
# T1 sequence (A0A024AXB9 whole entry): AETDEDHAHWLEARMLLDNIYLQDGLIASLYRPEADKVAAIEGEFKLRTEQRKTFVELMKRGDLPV
# Chain of Nonstructural protein 3 (Zika virus) (A0A024AXB9 as listed by the source): as the sequence (A0A024AXB9 whole entry) above
smiles,measurement,setting,value
O=C(Nc1nc2cc(O)c(O)cc2s1)[C@H]1CCCN1S(=O)(=O)c1ccc(Cl)cc1,IC50,[1],1400 nM
same,inhibition,[2],34%
O=C(Nc1nc2cc(O)c(O)cc2s1)C1CCCCC1,inhibition,[3],36%
same,inhibition,[2],20%
COc1ccc(S(=O)(=O)N2CCC[C@H]2C(=O)Nc2nc3cc(O)c(O)cc3s2)cc1,IC50,[1],1320 nM
same,inhibition,[2],36%
O=C(Nc1nc2cc(O)c(O)cc2s1)[C@@H]1CCCN1C(=O)c1ccccc1,IC50,[1],1550 nM
same,inhibition,[2],28%
COc1cc2nc(NC(=O)C3CCCN3S(=O)(=O)c3ccc(Cl)cc3)sc2cc1OC (configuration not stated),inhibition,[3],inactive
same,inhibition,[2],inactive
O=C(Nc1nc2cc(O)c(O)cc2s1)[C@H]1CCCN1S(=O)(=O)c1ccc(-c2ccccc2)cc1,IC50,[1],2470 nM
same,IC50,[4],10.9 µM
Cc1ccc(S(=O)(=O)N2CCC[C@@H]2C(=O)Nc2nc3ccc([N+](=O)[O-])cc3s2)cc1,inhibition,[3],31%
same,inhibition,[2],18%
Cc1ccc(S(=O)(=O)NCC(=O)Nc2nc3cc(O)c(O)cc3s2)cc1,IC50,[1],810 nM
same,IC50,[4],23 µM
O=C(Nc1nc2cc(O)c(O)cc2s1)[C@H]1CCCN1C(=O)c1ccccc1,IC50,[1],940 nM
same,inhibition,[2],33%
CC(=O)Nc1ccc2cc(S(=O)(=O)N3CCC[C@H]3C(=O)Nc3nc4cc(O)c(O)cc4s3)ccc2c1,IC50,[1],2950 nM
same,inhibition,[2],29%
Cc1ccc(S(=O)(=O)N2CCC[C@H]2C(=O)Nc2nc3cc(O)c(O)cc3s2)cc1,Drug uptake,[5],Active
same,Activity,[6],inactive
same,IC50,[1],2320 nM
same,Drug uptake,[7],Active
same,Activity,[8],Non-Toxic
same,Activity,[9],inactive
same,Kd,[10],240 nM
same,IC50,[4],25.2 µM
same,Activity,[11],inactive
COc1ccc2cc(Oc3ccccc3C(=O)Nc3nc4cc(OC)c(OC)cc4s3)ccc2c1,inhibition,[3],inactive
same,Activity,[6],Active
same,Activity,[12],Active
same,Activity,[8],Non-Toxic
same,Activity,[9],inactive
same,inhibition,[2],inactive
same,Activity,[11],Active
same,Activity,[13],Active
same,Activity,[14],Active
O=C(Nc1nc2ccc([N+](=O)[O-])cc2s1)[C@@H]1CCCN1C(=O)c1ccccc1,inhibition,[3],44%
same,inhibition,[2],41%
O=C(Nc1nc2cc(O)c(O)cc2s1)[C@@H]1CCCN1S(=O)(=O)c1ccc(Cl)cc1,IC50,[1],930 nM
same,inhibition,[2],39%
O=C(Nc1nc2cc(O)c(O)cc2s1)[C@@H]1CCCN1S(=O)(=O)c1cccc([N+](=O)[O-])c1,IC50,[1],1780 nM
same,inhibition,[2],25%
COc1ccc(S(=O)(=O)N2CCC[C@@H]2C(=O)Nc2nc3cc(O)c(O)cc3s2)cc1,IC50,[1],860 nM
same,inhibition,[2],28%
COc1ccc(S(=O)(=O)N2CCC[C@@H]2C(=O)Nc2nc3cc(OC)c(OC)cc3s2)cc1,inhibition,[3],inactive
same,inhibition,[2],inactive
O=C(Nc1nc2cc(O)c(O)cc2s1)[C@@H]1CCCN1S(=O)(=O)c1ccccc1,IC50,[1],1430 nM
same,inhibition,[2],27%
Cc1ccc(S(=O)(=O)Nc2ccccc2C(=O)Nc2nc3cc(O)c(O)cc3s2)cc1,IC50,[15],5.36 µM
same,IC50,[1],6430 nM
same,IC50,[4],15.3 µM
O=C(Nc1nc2cc(O)c(O)cc2s1)[C@@H]1CCCN1S(=O)(=O)c1ccc([N+](=O)[O-])cc1,Activity,[16],Active
same,IC50,[1],930 nM
same,Activity,[9],inactive
same,IC50,[4],8.58 µM
Cc1ccc(S(=O)(=O)N2CCCC[C@H]2C(=O)Nc2nc3cc(O)c(O)cc3s2)cc1,IC50,[1],510 nM
same,IC50,[4],13 µM
COc1cc2nc(NC(=O)[C@H]3CCCN3S(=O)(=O)c3ccc(CO)cc3)sc2cc1OC,Drug uptake,[5],Active
same,Drug uptake,[7],Active
COc1cc2nc(NC(=O)C3CCCN3S(=O)(=O)c3ccc([N+](=O)[O-])cc3)sc2cc1OC (configuration not stated),inhibition,[3],inactive
same,inhibition,[2],inactive
Cc1ccc(S(=O)(=O)N2CCCC(C(=O)Nc3nc4cc(O)c(O)cc4s3)C2)cc1 (racemic),IC50,[1],4550 nM
same,inhibition,[2],34%
Cc1ccc(S(=O)(=O)N2CCC(C(=O)Nc3nc4cc(O)c(O)cc4s3)CC2)cc1,IC50,[1],5950 nM
same,inhibition,[2],41%
O=C(Nc1nc2cc(O)c(O)cc2s1)[C@H]1CCCN1S(=O)(=O)c1ccc([N+](=O)[O-])cc1,Activity,[17],Active
same,IC50,[1],320 nM
same,Activity,[18],inactive
same,IC50,[4],10 µM
Cc1ccc(S(=O)(=O)N2CCCC[C@@H]2C(=O)Nc2nc3cc(O)c(O)cc3s2)cc1,IC50,[1],580 nM
same,IC50,[4],29 µM
CC(=O)Nc1ccc2cc(S(=O)(=O)N3CCC[C@@H]3C(=O)Nc3nc4cc(O)c(O)cc4s3)ccc2c1,IC50,[1],1350 nM
same,inhibition,[2],18%
O=C(Nc1nc2cc(O)c(O)cc2s1)[C@H]1CCCN1S(=O)(=O)c1ccccc1,IC50,[1],1860 nM
same,inhibition,[2],21%
O=C(Nc1nc2cc(O)c(O)cc2s1)[C@H]1CCCN1S(=O)(=O)c1ccc(F)cc1,IC50,[1],1030 nM
same,inhibition,[2],17%
COc1cc2nc(NC(=O)[C@@H]3CCCN3S(=O)(=O)c3ccc(C)cc3)sc2cc1OC,Activity,[6],inactive
same,Drug metabolism,[19],Metabolite_Detected
same,Activity,[16],Active
same,Drug metabolism,[20],Metabolite_Detected
same,Drug metabolism,[21],Metabolite_Detected
same,Activity,[8],Non-Toxic
same,Activity,[9],inactive
same,Drug metabolism,[22],Metabolite_Detected
same,Activity,[11],inactive
O=C(Nc1nc2ccc([N+](=O)[O-])cc2s1)[C@H]1CCCN1C(=O)c1ccccc1,IC50,[1],21900 nM
same,IC50,[4],33.9 µM
COc1cc2nc(NC(=O)[C@@H]3CCCN3S(=O)(=O)c3ccc(CO)cc3)sc2cc1OC,Drug uptake,[5],Active
same,Drug uptake,[7],Active
COc1cc2nc(NC(=O)C3CCCN3S(=O)(=O)c3ccc(C)cc3)sc2cc1OC (configuration not stated),inhibition,[3],inactive
same,inhibition,[2],inactive
O=C(Nc1nc2cc(O)c(O)cc2s1)[C@@H]1CCCN1S(=O)(=O)c1ccc(-c2ccccc2)cc1,IC50,[1],3170 nM
same,IC50,[4],13.5 µM
Cc1ccc(S(=O)(=O)N2CCC[C@@H]2C(=O)Nc2nc3cc(O)c(O)cc3s2)cc1,Drug uptake,[5],Active
same,Activity,[6],inactive
same,IC50,[1],1320 nM
same,Drug uptake,[7],Active
same,Activity,[8],Non-Toxic
same,Kd,[10],490 nM
same,Activity,[18],inactive
same,IC50,[4],19.7 µM
same,Activity,[11],inactive
O=C(Nc1nc2cc(O)c(O)cc2s1)[C@H]1CCCN1S(=O)(=O)c1cccc([N+](=O)[O-])c1,IC50,[1],1110 nM
same,inhibition,[2],33%
